Measured values published in Sander's compilation of Henry's law constants (doi:10.1111/j.1365-2621.1980.tb00916.x).

Assay: Henry solubility constant Hcp at 298.15 K (mol/(m3 Pa))
Conditions: reference: Mazza (1980)

Row | Compound | Henry solubility constant Hcp
1 | CCCS [1-propanethiol] | 0.0009
2 | CCCO [1-propanol] | 3.7
3 | Cc1ccc(C)s1 [2,5-dimethylthiophene] | 0.0037
4 | CC(C)O [2-propanol] | 2.1
5 | C=CCSCC=C [3,3'-thiobis-1-propene] | 0.0071
6 | C=CCSSCC=C [4,5-dithia-1,7-octadiene] | 0.0075
7 | C=CCSC [allyl methyl sulfide] | 0.005
8 | CCCSSCCC [dipropyl disulfide] | 0.018
9 | CCO [ethanol] | 6.2
10 | CCCSC [methyl propyl sulfide] | 0.0043
